Assay results reported in article PMC3736441 (Marine Drugs, 2013).

Assays:
[1] = system: cervix carcinoma cells (Hela); assay: in vitro; conditions: Hela cells, MTT
Procedure: (§1) IC50 of these compounds were determined by the MTT assay (see Table 2).
(§2) The cytotoxic activities were determined using MCF-7, A549, Hela, KB human tumor cells by the MTT colorimetric method. […] Subsequently 20 μL of MTT solution (5 mg/mL) were added to each well and mixed, the cells were then incubated for an additional 4 h. Culture supernatant were removed, 150 μL of DMSO were added to each well to fully dissolve the MTT—formazan crystals. Cell growth inhibition was determined by measuring the absorbance (Abs) at λ = 570 nm using a microplate reader and calculated according to the following equation: Growth inhibition = (1 − OD of treated cells/OD of control cells) × 100% (1)
(§3) The half maximal inhibitory concentrations (IC50) were obtained from linear regression analysis of the concentration-response curves plotted for each tested compound (Bliss’s software). Results were expressed as the mean value of triplicate data points.

[2] = system: human breast cancer cells (MCF-7); assay: in vitro; conditions: MCF-7 cells, MTT
Procedure: as §1, §2, §3

[3] = target: α-acetylcholinesterase (AChE) (Homo sapiens, UniProt P22303); assay: biochemical; format: biochemical; conditions: phosphate buffer pH 7.0, 37 °C, triplicate; for IC50: read-out: Inhibition of AChE IC50; on all read-outs here: key: '-' as 'no action'
Chain of α-acetylcholinesterase (AChE) (P22303 32-614): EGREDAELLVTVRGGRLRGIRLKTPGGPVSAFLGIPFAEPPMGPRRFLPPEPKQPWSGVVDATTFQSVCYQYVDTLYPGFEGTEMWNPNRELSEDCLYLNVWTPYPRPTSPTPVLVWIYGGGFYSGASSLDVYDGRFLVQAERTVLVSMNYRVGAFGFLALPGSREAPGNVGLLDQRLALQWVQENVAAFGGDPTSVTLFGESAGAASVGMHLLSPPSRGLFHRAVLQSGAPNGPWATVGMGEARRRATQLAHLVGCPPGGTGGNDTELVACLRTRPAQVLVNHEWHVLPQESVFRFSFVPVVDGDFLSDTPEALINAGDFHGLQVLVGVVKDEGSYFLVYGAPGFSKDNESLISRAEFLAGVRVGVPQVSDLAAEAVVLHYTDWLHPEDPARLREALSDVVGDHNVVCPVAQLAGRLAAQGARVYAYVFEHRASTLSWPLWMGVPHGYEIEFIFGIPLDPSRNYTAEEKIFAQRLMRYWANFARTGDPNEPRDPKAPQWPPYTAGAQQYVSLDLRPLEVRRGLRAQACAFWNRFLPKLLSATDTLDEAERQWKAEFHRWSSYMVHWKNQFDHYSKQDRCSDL
Procedure: α-Acetylcholinesterase inhibitory activity was assayed using 50 mM phosphate buffer (pH 7.0). […] 10 μL of sample solution and 10 μL of α-acetylcholinesterase solution (2 units mL^−1, in the phosphate buffer at pH 7.0) were added to 960 μL of phosphate buffer and incubated at 37 °C for 30 min, and then 20 μL of substrate were added to initiate the enzyme reaction. The enzyme reaction was carried out at 37 °C for 30 min. Product was monitored spectrophotometrically by measuring the absorbance (λ = 400 nm). Huperzine A was used as reference standard inhibitor for comparison. Dose-response curves were obtained by performing assays in the presence of increasing concentrations of inhibitors. IC50 value was determined by interpolation of the dose-response curves. For all tests, the inhibition assays were performed in triplicate.

[4] = system: human nasopharyngeal carcinoma cells (KB); conditions: MTT
Procedure: as §1, §2, §3

[5] = system: lung cancer cells (A549); conditions: MTT
Procedure: as §1, §2, §3

[6] = in vitro; conditions: human
Procedure: as §1, §2, §3

Row | Structure (SMILES) | Cytotoxicity IC50 Hela [1] | cytotoxic / inhibitory activity against Hela (in words) [1] | Cytotoxicity IC50 MCF-7 [2] | cytotoxic / inhibitory activity against MCF-7 (in words) [2] | Inhibition of AChE IC50 [3] | Cytotoxicity IC50 KB [4] | cytotoxic / inhibitory activity against KB (in words) [4] | Cytotoxicity IC50 A549 [5] | cytotoxic / inhibitory activity against A549 (in words) [5] | IC50 [3] | IC50 ([6]; Cytotoxicity IC50 Hela, Hela cells, MTT) | IC50 ([6]; Cytotoxicity IC50 MCF-7, MCF-7 cells, MTT) | IC50 ([6]; Cytotoxicity IC50 Hela) | IC50 ([6]; Cytotoxicity IC50 MCF-7)
1 | COc1cc(OC)c2c(c1O)C(=O)c1sc(C(C)O)cc1C2=O (centres unmarked) [Compound 1, 8-hydroxy-2-[1-hydroxyethyl]-5,7-dimethoxynaphtho[2,3-b] thiophene-4,9-dione] | - | no inhibitory activities | - | no inhibitory activities | - | - | no inhibitory activities | - | no inhibitory activities |  |  |  |  | 
2 | COC1=CC(=O)c2c(O)c(C)c3c(c2C1=O)O[C@@H](C)C3 [Compound 2, anhydrojavanicin] | - | no inhibitory activities | - | no inhibitory activities |  | - | no inhibitory activities | - | no inhibitory activities | 2010 nM |  |  |  | 
3 | COc1cc(OC)c2c(c1O)C(=O)c1cc(C)ncc1C2=O [Compound 3, 8-O-methylbostrycoidin] | - | no inhibitory activities | - | no inhibitory activities |  | - | no inhibitory activities | - | no inhibitory activities | 6710 nM |  |  |  | 
4 | COc1cc(OC)c2c(c1O)C(=O)C(CC(C)=O)=C(C)C2=O [Compound 4, 8-O-methyljavanicin] | - | no inhibitory activities | - | no inhibitory activities | - | - | no inhibitory activities | - | no inhibitory activities |  |  |  |  | 
5 | CCc1c(OC)cc2c(c1O)C(=O)C[C@H](O)[C@H]2O [Compound 5, botryosphaerone D] | - | no inhibitory activities | - | no inhibitory activities | - | - | no inhibitory activities | - | no inhibitory activities |  |  |  |  | 
6 | CCc1c(OC)cc2c(c1O)C(=O)C(OC)=CC2=O [Compound 6, 6-ethyl-5-hydroxy-3,7-dimethoxynaphthoquinone] | - | no inhibitory activities | - | no inhibitory activities | - | - | no inhibitory activities | - | no inhibitory activities |  |  |  |  | 
7 | CC(C)[C@@H](C)/C=C/[C@@H](C)[C@H]1CC[C@H]2C3=CC(=O)[C@@]4(O)C[C@@H](O)CC[C@]4(C)[C@H]3CC[C@]12C [Compound 7, 3β,5α-dihydroxy-(22E,24R)-ergosta-7,22-dien-6-one] |  | strong or moderate cytotoxic activies |  | strong or moderate cytotoxic activies | - |  | strong or moderate cytotoxic activies |  | strong or moderate cytotoxic activies |  |  |  |  | 
8 | CC(C)[C@@H](C)/C=C/[C@@H](C)[C@H]1CC[C@@]2(O)C3=CC(=O)[C@@]4(O)C[C@@H](O)CC[C@]4(C)[C@H]3CC[C@]12C [Compound 8, 3β,5α,14α-trihydroxy-(22E,24R)-ergosta-7,22-dien-6-one] |  | weak inhibitory activities |  | weak inhibitory activities | - |  | weak inhibitory activities |  | weak inhibitory activities |  | 25400 nM | 24400 nM |  | 
9 | CC(=O)O[C@H]1C[C@H]2[C@H]3[C@H]([C@@H](O)C[C@]2(C)[C@H]1[C@H](C)/C=C/[C@H](C)C(C)C)[C@@]1(C)CC[C@H](O)C[C@@H]1C(=O)[C@@H]3O [Compound 9, NGA0187] | - | no inhibitory activities | - | no inhibitory activities |  | - | no inhibitory activities | - | no inhibitory activities | 1890 nM |  |  |  | 
10 | COc1cccc2c1C(=O)c1c(O)c3c(c(O)c1C2=O)C[C@@](O)(C(=O)CO)C[C@@H]3O[C@H]1C[C@H](N)[C@@H](O)[C@H](C)O1 [Epirubicin, reference compound] |  |  |  |  |  |  |  |  |  |  |  |  | 1070 nM | 420 nM
